Values quoted from earlier work in patent publication US20230285491A1, “COMPOSITION FOR PREVENTION OF DUMPING SYNDROME IN A POST-BARIATRIC SURGERY SETTING” (METAGENICS, INC., priority 2020, published 2023).

Biological target: T1, GLP-1 receptor (Homo sapiens, UniProt P43220)
T1 construct: GLP-1 receptor antagonism prevented hypoglycemia in all patients and reversed neuroglycopenic symptoms; host or cells: gastric bypass patients (in vivo, endogenous receptor)
Settings: gastric bypass patients

T1 sequence (P43220 24-463): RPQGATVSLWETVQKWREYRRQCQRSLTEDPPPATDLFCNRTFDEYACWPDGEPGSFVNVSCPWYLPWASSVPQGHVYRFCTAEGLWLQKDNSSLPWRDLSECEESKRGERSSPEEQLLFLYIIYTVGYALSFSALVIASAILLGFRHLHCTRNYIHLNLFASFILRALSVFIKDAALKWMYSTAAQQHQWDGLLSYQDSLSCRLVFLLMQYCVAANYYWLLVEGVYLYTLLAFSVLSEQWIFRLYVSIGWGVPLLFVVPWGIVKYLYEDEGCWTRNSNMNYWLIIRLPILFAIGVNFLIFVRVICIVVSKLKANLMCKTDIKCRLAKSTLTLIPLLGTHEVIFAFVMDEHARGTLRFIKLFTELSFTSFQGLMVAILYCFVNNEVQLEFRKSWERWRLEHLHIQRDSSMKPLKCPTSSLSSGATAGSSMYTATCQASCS

Exendin-(9-39)
effect on postprandial hypoglycemic and hyperinsulinemic events: corrected postprandial hypoglycemic and hyperinsulinemic events
